Laboratory results from patent US7960377B2 (priority 2008, dated 2011).
Read-outs that look alike come from different tables or passages of the source.

Legend:
Test in all cases: cell-based
human CB2 receptor = human CB2 receptor (Homo sapiens, UniProt P34972); format: cell-based
rat CB2 receptor = target: T1, rat CB2 receptor (Rattus norvegicus, UniProt Q9QZN9); format: cell-based; conditions: for inverse agonist mark, rat CB2 receptor: asterisk at the compound number
T1 sequence (Q9QZN9 1-360): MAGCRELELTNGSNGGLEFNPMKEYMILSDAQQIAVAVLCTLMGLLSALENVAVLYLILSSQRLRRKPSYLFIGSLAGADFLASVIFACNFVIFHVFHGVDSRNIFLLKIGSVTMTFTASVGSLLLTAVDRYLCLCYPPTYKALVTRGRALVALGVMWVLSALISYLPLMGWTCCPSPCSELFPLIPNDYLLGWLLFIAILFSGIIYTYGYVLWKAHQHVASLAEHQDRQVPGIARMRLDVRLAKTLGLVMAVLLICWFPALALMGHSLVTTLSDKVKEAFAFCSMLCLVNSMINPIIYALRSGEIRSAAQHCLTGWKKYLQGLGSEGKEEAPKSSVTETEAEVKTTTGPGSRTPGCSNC

human CB1 receptor = human CB1 receptor (Homo sapiens, UniProt P21554); conditions: for inverse agonist mark, human CB1 receptor: asterisk at the compound number
[1] = change in intracellular cAMP, CHO-K1 hCB2 cells, class AR, read-out: EC50 values for human CB2 receptor

Chain of human CB1 receptor (P21554 whole entry): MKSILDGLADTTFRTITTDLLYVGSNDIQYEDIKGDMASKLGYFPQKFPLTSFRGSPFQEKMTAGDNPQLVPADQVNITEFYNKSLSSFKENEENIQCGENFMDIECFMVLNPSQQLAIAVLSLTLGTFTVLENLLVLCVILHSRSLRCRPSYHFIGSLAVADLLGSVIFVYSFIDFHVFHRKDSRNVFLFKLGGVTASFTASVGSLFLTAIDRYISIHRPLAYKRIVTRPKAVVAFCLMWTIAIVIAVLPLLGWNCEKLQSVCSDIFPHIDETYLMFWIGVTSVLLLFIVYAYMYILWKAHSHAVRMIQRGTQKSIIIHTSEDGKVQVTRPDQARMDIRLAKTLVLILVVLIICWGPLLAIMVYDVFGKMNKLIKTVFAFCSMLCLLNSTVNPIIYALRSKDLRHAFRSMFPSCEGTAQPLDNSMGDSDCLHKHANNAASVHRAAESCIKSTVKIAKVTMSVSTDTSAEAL
Chain of human CB2 receptor (P34972 whole entry): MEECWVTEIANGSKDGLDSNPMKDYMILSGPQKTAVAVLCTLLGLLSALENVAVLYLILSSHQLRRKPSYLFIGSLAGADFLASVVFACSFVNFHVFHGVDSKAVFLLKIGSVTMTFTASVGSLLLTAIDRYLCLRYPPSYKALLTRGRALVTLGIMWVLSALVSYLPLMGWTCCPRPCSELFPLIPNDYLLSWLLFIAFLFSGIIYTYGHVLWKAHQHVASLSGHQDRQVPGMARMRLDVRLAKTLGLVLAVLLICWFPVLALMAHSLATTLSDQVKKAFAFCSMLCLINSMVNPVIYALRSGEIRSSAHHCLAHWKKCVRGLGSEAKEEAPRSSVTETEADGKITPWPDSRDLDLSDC

| Compound | EC50 (human CB2 receptor) [µM] | EC50 (rat CB2 receptor) [µM] | EC50 (human CB1 receptor) [µM] | other results |
| --- | --- | --- | --- | --- |
| CC(C)(C)NC(=O)c1cnc2c(c1)N(S(=O)(=O)c1ccc(C#N)cc1)CCO2 [Example 3, N-tert-butyl-1-(4-cyanophenylsulfonyl)-2,3-dihydro-1H-pyrido[2,3-b][1,4]oxazine-7-carboxamide] | ≤ 0.03 | ≤ 0.03 |  |  |
| CC(C)(C)NC(=O)c1cnc2c(c1)N(S(=O)(=O)c1ccc(F)cc1)CCO2 [Example 7, N-tert-butyl-1-(4-fluoro-phenylsulfonyl)-2,3-dihydro-1H-pyrido[2,3-b][1,4]oxazine-7-carboxamide] | ≤ 0.03 | ≤ 0.03 |  |  |
| CC(C)(C)CNC(=O)c1cnc2c(c1)N(S(=O)(=O)c1ccc(F)cc1)CCO2 [Example 11] | ≤ 0.03 | ≤ 0.03 |  |  |
| CC(C)(C)NC(=O)c1cnc2c(c1)N(S(=O)(=O)c1ccc(Cl)cc1)CCO2 [Example 24, N-tert-butyl-1-(4-chlorophenylsulfonyl)-2,3-dihydro-1H-pyrido[2,3-b][1,4]oxazine-7-carboxamide] | ≤ 0.03 | ≤ 0.03 |  |  |
| O=C(NC1CCCC1)c1cnc2c(c1)N(S(=O)(=O)c1ccc(Cl)cc1)CCO2 [Example 25, 1-(4-chlorophenyl-sulfonyl)-N-cyclopentyl-2,3-dihydro-1H-pyrido[2,3-b][1,4]oxazine-7-carboxamide] | ≤ 0.03 | ≤ 0.03 |  |  |
| CC(C)(C)NC(=O)c1cnc2c(c1)N(S(=O)(=O)c1cccc3ccccc13)CCO2 [Example 87, N-tert-butyl-1-(naphthalen-1-ylsulfonyl)-2,3-dihydro-1H-pyrido[2,3-b][1,4]oxazine-7-carboxamide] | > 30 |  | > 30 |  |
| CC(C)(C)NC(=O)c1cnc2c(c1)N(S(=O)(=O)c1ccc3ccccc3c1)CCO2 [Example 88, N-tert-butyl-1-(naphthalen-2-ylsulfonyl)-2,3-dihydro-1H-pyrido[2,3-b][1,4]oxazine-7-carboxamide] | > 30 |  | > 30 |  |
| Cc1cc(S(=O)(=O)N2CCOc3ncc(C(=O)NC(C)(C)C)cc32)c(C)s1 [Example 91, N-tert-butyl-1-(2,5-dimethylthiophen-3-ylsulfonyl)-2,3-dihydro-1H-pyrido[2,3-b][1,4]oxazine-7-carboxamide] | > 30 |  | > 30 |  |
| O=C(NCCO)c1cnc2c(c1)N(S(=O)(=O)c1ccc(Cl)cc1F)CCO2 [Example 115, 1-(4-chloro-2-fluorophenylsulfonyl)-N-(2-hydroxyethyl)-2,3-dihydro-1H-pyrido[2,3-b][1,4]oxazine-7-carboxamide] |  |  | > 30 | EC50 (human CB2 receptor; [1]): > 30 µM |
| O=C(c1cnc2c(c1)N(S(=O)(=O)c1ccc(Cl)c(Cl)c1)CCO2)N1CCN(c2ccccn2)CC1 [Example 117] | > 30 |  |  | inverse agonist mark, human CB1 receptor (human CB1 receptor): 11, 24, 25, 42, 43*, 67, 117*, 121, 124, 131, 132, 148, 150, 151, |
| O=C(c1cnc2c(c1)N(S(=O)(=O)c1ccc(Cl)c(Cl)c1)CCO2)N1CCN(S(=O)(=O)c2ccccc2)CC1 [Example 118, (1-(3,4-dichlorophenyl-sulfonyl)-2,3-dihydro-1H-pyrido[2,3-b][1,4]oxazin-7-yl)(4-(phenylsulfonyl)piperazin-1-yl)methanone] |  |  |  | EC50 (human CB2 receptor; [1]): > 30 µM; inverse agonist mark, rat CB2 receptor (rat CB2 receptor): 118*, 120, 123, 125, 127, 134, 143, 145, 161, 174, 175, 176, 198, |
| O=C(c1cnc2c(c1)N(S(=O)(=O)c1ccc(Cl)c(Cl)c1)CCO2)N1CC(O)C1 [Example 125, (1-(3,4-dichlorophenyl-sulfonyl)-2,3-dihydro-1H-pyrido[2,3-b][1,4]oxazin-7-yl)(3-hydroxyazetidin-1-yl)methanone] |  |  | > 30 | EC50 (human CB2 receptor; [1]): > 30 µM |
| O=C(N[C@H]1CC[C@H](O)CC1)c1cnc2c(c1)N(S(=O)(=O)c1ccc(Cl)c(Cl)c1)CCO2 [Example 134, 1-(3,4-dichlorophenyl-sulfonyl)-N-(trans-4-hydroxycyclohexyl)-2,3-dihydro-1H-pyrido[2,3-b][1,4]oxazine-7-carboxamide] |  |  | > 30 | EC50 (human CB2 receptor; [1]): > 30 µM |
| CCC(C)(C)NC(=O)c1cnc2c(c1)N(S(=O)(=O)N1CCC(C(F)(F)F)CC1)CCO2 [Example 151, N-tert-pentyl-1-(4-(trifluoromethyl)piperidin-1-ylsulfonyl)-2,3-dihydro-1H-pyrido[2,3-b][1,4]oxazine-7-carboxamide] | ≤ 0.03 | ≤ 0.03 |  |  |
| CC(C)(C)c1cc(NC(=O)c2cnc3c(c2)N(S(=O)(=O)N2CCC(C(F)(F)F)CC2)CCO3)no1 [Example 154, N-(5-tert-butylisoxazol-3-yl)-1-(4-(trifluoromethyl)piperidin-1-ylsulfonyl)-2,3-dihydro-1H-pyrido[2,3-b][1,4]oxazine-7-carboxamide] |  | ≤ 0.03 |  | inverse agonist mark, human CB2 receptor (human CB2 receptor; asterisk at the compound number): 121, 124, 131, 136, 137, 138, 139, 146, 150, 152, 154*, 155, 157,; inverse agonist mark, rat CB2 receptor (rat CB2 receptor): 146, 148, 149, 150, 151, 152, 153*, 154*, 155, 156, 157, 163, 164, |
| CC(C)(C)NC(=O)c1cnc2c(c1)N(S(=O)(=O)N1CCC(F)(F)CC1)CCO2 [Example 156, N-tert-butyl-1-(4,4-difluoropiperidin-1-ylsulfonyl)-2,3-dihydro-1H-pyrido[2,3-b][1,4]oxazine-7-carboxamide] | ≤ 0.03 | ≤ 0.03 |  |  |
| CC(C)(C)NC(=O)c1cnc2c(c1)N(S(=O)(=O)N1CCC(c3ccccc3)CC1)CCO2 [Example 158, N-tert-butyl-1-(4-phenylpiperidin-1-ylsulfonyl)-2,3-dihydro-1H-pyrido[2,3-b][1,4]oxazine-7-carboxamide] | > 30 |  | > 30 |  |
| CCC(C)(C)NC(=O)c1cnc2c(c1)N(S(=O)(=O)N1CCC(c3ccccc3)CC1)CCO2 [Example 159, N-tert-pentyl-1-(4-phenylpiperidin-1-ylsulfonyl)-2,3-dihydro-1H-pyrido[2,3-b][1,4]oxazine-7-carboxamide] | > 30 |  | > 30 |  |
| CC(C)(CO)CNC(=O)c1cnc2c(c1)N(S(=O)(=O)N1CCC(c3ccccc3)CC1)CCO2 [Example 161, N-(3-hydroxy-2,2-dimethylpropyl)-1-(4-phenylpiperidin-1-ylsulfonyl)-2,3-dihydro-1H-pyrido[2,3-b][1,4]oxazine-7-carboxamide] | > 30 |  | > 30 |  |
| CC(C)(C)c1cc(NC(=O)c2cnc3c(c2)N(S(=O)(=O)N2CCC(F)(F)C2)CCO3)no1 [Example 165, N-(5-tert-butylisoxazol-3-yl)-1-(3,3-difluoro-pyrrolidin-1-ylsulfonyl)-2,3-dihydro-1H-pyrido-[2,3-b][1,4]oxazine-7-carboxamide] | > 30 |  |  | inverse agonist mark, rat CB2 receptor (rat CB2 receptor): 108, 114, 117, 122, 126, 128, 129, 130, 141, 147, 162*, 165*, 179, |
| CN1CCN(S(=O)(=O)N2CCOc3ncc(C(=O)NC(C)(C)C)cc32)CC1 [Example 174, N-tert-butyl-1-(4-methylpiperazin-1-ylsulfonyl)-2,3-dihydro-1H-pyrido[2,3-b][1,4] oxazine-7-carboxamide] | > 30 |  | > 30 |  |
| CC(C)(C)NC(=O)c1cnc2c(c1)N(S(=O)(=O)N1CCC(Cl)CC1)CCO2 [Example 184, N-tert-butyl-1-(4-chloropiperidin-1-ylsulfonyl)-2,3-dihydro-1H-pyrido[2,3-b][1,4]oxazine-7-carboxamide] | > 30 | ≤ 0.03 |  |  |
| CCC(C)(C)NC(=O)c1cnc2c(c1)N(S(=O)(=O)N1CCC(Cl)CC1)CCO2 [Example 185, 1-(4-chloropiperidin-1-ylsulfonyl)-N-tert-pentyl-2,3-dihydro-1H-pyrido[2,3-b][1,4]oxazine-7-carboxamide] | > 30 | ≤ 0.03 |  |  |
| CC(C)(CO)CNC(=O)c1cnc2c(c1)N(S(=O)(=O)N1CCC(Cl)CC1)CCO2 [Example 187, 1-(4-chloropiperidin-1-ylsulfonyl)-N-(3-hydroxy-2,2-dimethylpropyl)-2,3-dihydro-1H-pyrido[2,3-b][1,4]oxazine-7-carboxamide] | > 30 | ≤ 0.03 |  |  |
| CC(C)(C)NC(=O)c1cnc2c(c1)N(S(=O)(=O)N1CCc3ccccc3C1)CCO2 [Example 188, N-tert-butyl-1-(3,4-dihydroisoquinolin-2(1H)-ylsulfonyl)-2,3-dihydro-1H-pyrido[2,3-b][1,4]oxazine-7-carboxamide] | > 30 |  |  | inverse agonist mark, human CB1 receptor (human CB1 receptor): 152, 154, 155, 165, 184, 185, 187, 188*, 212, 214, 217, 227 |
| CCC(C)(C)NC(=O)c1cnc2c(c1)N(S(=O)(=O)N1CCc3ccccc3C1)CCO2 [Example 189, 1-(3,4-dihydroisoquinolin-2(1H)-ylsulfonyl)-N-tert-pentyl-2,3-dihydro-1H-pyrido[2,3-b][1,4]oxazine-7-carboxamide] | > 30 |  | > 30 |  |
| CC(C)(CO)NC(=O)c1cnc2c(c1)N(S(=O)(=O)N1CCc3ccccc3C1)CCO2 [Example 190, 1-(3,4-dihydroisoquinolin-2(1H)-ylsulfonyl)-N-(1-hydroxy-2-methylpropan-2-yl)-2,3-dihydro-1H-pyrido[2,3-b][1,4]oxazine-7-carboxamide] | > 30 |  | > 30 |  |
| O=C(NC1(C(=O)O)CCC1)c1cnc2c(c1)N(S(=O)(=O)c1ccc(C(F)(F)F)cc1)CCO2 [Example 208, 1-(1-(4-(trifluoromethyl)phenylsulfonyl)-2,3-dihydro-1H-pyrido[2,3-b][1,4]oxazine-7-carboxamido)cyclobutanecarboxylic acid] |  |  | > 30 | EC50 (human CB2 receptor; [1]): > 30 µM |
| CC1(C)CNC(c2cnc3c(c2)N(S(=O)(=O)c2ccc(C(F)(F)F)cc2)CCO3)=N1 [Example 224, 7-(4,4-dimethyl-4,5-dihydro-1H-imidazol-2-yl)-1-(4-(trifluoromethyl)phenylsulfonyl)-2,3-dihydro-1H-pyrido[2,3-b][1,4]oxazine] |  |  | > 30 | EC50 (human CB2 receptor; [1]): > 30 µM |
